Experimental data reported in patent US8552000B2, “Therapeutic agent for senile dementia” (Dainippon Sumitomo Pharma Co., Ltd., priority 2003, dated 2013).

System: scopolamine-induced cognitive/memory dysfunction models
Assay: one step-through passive avoidance test, scopolamine-induced amnesia
Assay type: in vivo, Male Wistar rats
Description: Male Wistar rats (7 weeks old) were used. As a test medicament, (1R,2S,3R,4S)—N-|(1R,2R)-2-[4-(1,2-benzisothiazol-3-yl)-1-piperazinyl-methyl]-1-cyclohexylmethyl]-2,3-bicycl[2.2.1]heptanedicarboxylmide (Compound A) was suspended in 0.5% methyl cellulose (MC) solution. As an agent for inducing amnesia, scopolamine (manufactured by Wako Pure Chemical Industries, Ltd., product No. 198-07901), which is an acethylcoline receptor blocker, was dissolved in saline solution (manufactured by TERUMO CORPORATION). Compound A at a dose of 3 mg/kg or 30 mg/kg, or 0.5% MC as a control was orally administered to the animals one hour prior to the training step in the one step-through passive avoidance test, and then, scopolamine at a dose of 0.5 mg/kg or a saline solution as a control was subcutaneously administered to the animals 30 minutes prior to the training step. The volume of each solution to be administered was 5 ml/kg each.
The one step-through passive avoidance test in rats was carried out in the following manners with using an apparatus consisting of a light-dark box and an electric stimulator (manufactured by O'hara & Co., Ltd., product no. PA-2030A) as an experimental apparatus. Namely, on Day 1, after the medicament and the agent for inducing amnesia were administered, the rats were put into the light box of the experimental apparatus where the back of each rat was directed to the dark box. Then, 10 seconds later, a guillotine door set at the border between the dark box and the light box was opened. Due to the habits of the rats, once the rats entered into the dark box, the guillotine door was quickly closed. At three seconds after the entering into the dark box, an electroconvulsive shock (0.5 mA, for 3 seconds) was given to the rats. Again, the guillotine door was opened, and after the rats spontaneously returned to the light box, the animals were transferred into the home cage. The period between the time just after the guillotine door was opened and the time at which the rats entered into the dark box was measured as a step-through latency.
On Day 2 of the experiment, a test was carried out about 24 hours after the training. The procedures of the test were carried out in the same manner to the training step except that an electroconvulsive shock was not given. The step-through latency in the test was measured up to 300 seconds, and the step-through latency over 300 seconds was regarded as 300 seconds. FIG. 1 and FIG. 2 show the effects of Compound A on the scopolamine-induced cognitive/memory dysfunction models in the one step-through passive avoidance test when it was orally administered at a dosage of 3 mg/kg or 30 mg/kg. […] The number of the animals was 15 per group, and the data was expressed in mean±SEM.

O=C1[C@@H]2[C@@H]3CC[C@@H](C3)[C@@H]2C(=O)N1C[C@@H]1CCCC[C@H]1CN1CCN(c2nsc3ccccc23)CC1 [Compound A]
step-through latency during the training (Compound A 3 mg/kg orally one hour prior to training, scopolamine 0.5 mg/kg s.c. 30 minutes prior, vs 0.5% MC+scopolamine): slightly shortened | step-through latency during the test (Compound A 30 mg/kg orally plus scopolamine 0.5 mg/kg s.c., test about 24 hours after training, vs 0.5% MC+scopolamine): significantly extended | improving effect of scopolamine-induced cognitive/memory dysfunctions (overall finding of the passive avoidance test in rats, oral administration): exhibited an improving effect

CN1[C@@H]2C[C@@H](OC(=O)[C@H](CO)c3ccccc3)C[C@H]1[C@@H]1O[C@@H]12 [scopolamine, reference compound]
step-through latency during the training (scopolamine 0.5 mg/kg s.c. alone (with 0.5% MC), vs saline solution): did not affect | step-through latency during the test (scopolamine 0.5 mg/kg s.c. alone (with 0.5% MC), vs saline solution, about 24 hours after training): significantly shorter
